According to US20250346613A1, “BORIC ACID PROTEASOME INHIBITOR AND USE THEREOF” (ARTIVILA BIOPHARMA, priority 2022, published 2025):

What was measured:
Type in all cases: cell-based
MM.1S cell strain = experiment: Inhibitory activity of cell strain (CellTiter-Glo); conditions: Homo sapiens, MM1.S, 72 h incubation
Protocol: The cells used in this experiment were MM.1S cell strain and the detection reagent was CellTiter-Glo (Promega). […] The experimental process was described below. MM.1S cells in the logarithmic growth phase and in a good status were digested into individual cells by trypsin, centrifuged to remove the supernatant, and counted. Cells were diluted and 100 μL of cell suspension per well was added to a 96-well enzyme-coated plate at 1×10^5 cells per well. The wells containing only RPMI1640 complete medium were set as blank control. The 96-well plate was transferred to a 37° C. incubator containing 5% CO2 for 24 h of incubation.
The compound was accurately weighed and dissolved in DMSO to a concentration of 10^−2 M. 10 μL of compound was pipetted to 190 μL of DMSO to given a 5×10^−4 M compound. 6 μL of the compound (5×10^−5 M) was pipetted to a new 96-well microplate containing 194 μL of RPMI1640 complete medium and diluted in a 3-fold gradient dilution. 50 μL of the diluted compound was transferred to the 96-well microplate containing the cells such that the final compound concentrations were 5×10^−7 M, 1.67×10^−7 M, 5.55×10^−8 M, 1.85×10^−8 M, 6.17×10^−9 M, 2.06×10^−9 M, 6.86×10^−10 M, 2.29×10^−10 M, and 0 M. For the 0 M, no compound was added, and the same concentration of DMSO was added. The marketed drug bortezomib was used as a positive control. The 96-well microplate added with compounds was placed in the 37° C. incubator for 72 h of incubation.
At the predetermined detection time, the 96-well microplate to be detected was placed at room temperature, added with 40 μL of detection reagent (CellTiter-Glo) per well, and covered with a dark lid or piece of aluminium foil. The contents were mixed on an orbit oscillator for 10 min for complete cell lysis, with a vibration speed of 150 rpm. Luminescence values were detected on a multifunctional microplate reader (BioTek Synergy H1 Hybrid Multi-Mode Reade).
The data were exported and the percentage inhibition was calculated according to the following formula: Inhibition rate=(maximum signal value-compound signal value)/(maximum signal value−blank signal value)×100%, • wherein maximum signal was obtained from alone DMSO-treated cells, and blank signal was obtained from wells containing only culture medium.

[1] = biological target: T1, β5c subunit of the 20S proteasome (Homo sapiens, UniProt P20618+P28074); experiment: Proteasome inhibitory activity, β5c subunit (Raji cells treated with compound, lysed, Suc-LLVY-AMC substrate); conditions: proteasome from Raji cells incubated with compound 4 h
T1 construct: The proteasome tested in the present disclosure was derived from Raji cells; endogenous in cells; host or cells: Raji cells
Source text: (§1) In the present disclosure, the fluorescent peptide substrate Ac-Ala-Asn-Trp-AMC (abbreviated as Ac-ANW-AMC) and the […] kit containing a fluorescent peptide substrate Suc-Leu-Leu-Val-Tyr-AMC (abbreviated as Suc-LLVY-AMC) (Promega, Item No. G8660) were used to detect the activities of the β5i subunit and β5c subunit of the 20S proteasome, respectively.
(§2) The proteasome tested in the present disclosure was derived from Raji cells, the fluorescent substrate Ac-ANW-AMC was purchased from Roche company, and other reagents were purchased from Sigma company. The experimental system was divided into two parts of cell lysis system and enzyme reaction system. […] The starting concentration of the compound (inhibitor) was 1 μM. It was diluted in a 3-fold serial dilution to a total of 8 concentrations, that is, the administration concentration can be 1 μM, 0.333 μM, 0.111 μM . . . , respectively, and the specific experimental process was described below.
(§3) Raji cells (1×10^6 cells) cryopreserved in liquid nitrogen were thawed rapidly in a water bath at 37° C. The cell pellet was transferred to a 15 mL centrifuge tube, added with 9 mL of fresh medium (Gibco RPMI1640 added with 10% fetal bovine serum and 1% double antibiotics), centrifuged at 120 g for 5 min, inoculated to 25 mL cell culture flasks, and passaged once every 2-3 days.
(§4) The compound was weighed and dissolved in DMSO to a concentration of 10 mM. The compound was then sequentially diluted to concentrations of 200 μM, 66.67 μM, 22.22 μM, 7.41 μM, 2.47 μM, 0.82 μM, 0.27 μM, and 0.091 μM with fresh medium. Raji cells in a good growth status were inoculated into a 48-well cell culture plate at 7×10^5 cells/mL.
(§5) Raji cells in a good growth status were taken and counted. They were then inoculated to a 48-well cell culture plate at 7×10^5 cells/mL. Each 5 μL of the various concentrations of diluted compounds above were taken and added to the culture plate inoculated with cells, and the lowest concentration of compound was 0 μM. The drug bortezomib (Velcade) and ONX-0914 were used as the positive control compounds. All cells were incubated at 37° C. for 4 h.
(§6) The compound-treated cells were sequentially transferred into 1.5 mL centrifuge tubes, centrifuged at 10000 rpm for 2 min, and the supernatants were removed. The cell pellet was resuspended in 1 mL of PBS, centrifuged at 10000 rpm for 2 min, and the supernatant was removed. Cells were resuspended by adding 100 μL of cell lysate (50 mM Tris of pH 7.5, 150 mM NaCl, 5 mM MgCl2, 5 mM ATP, 1 mM DTT, 0.01% NP-40, 1 mM Digitonin, and Cocktail), placed in an ice bath for 30 min, and centrifuged at 13000 rpm for 10 min.
(§7) 2 mg of fluorescent peptide substrate AC-ANW-AMC was dissolved in 424.7 μL of DMSO to obtain an 8 mM stock solution, and stored at −20° C. The stock solution was diluted 100-fold to a final concentration of […] for use in the reaction system. The fluorescent peptide substrate Suc-LLVY-AMC was prepared according to the instructions of the Promega kit.
(§8) Each 20 μL of the prepared proteasome solution above was added to a 96-well white luciferase microplate and added with 25 μL of AC-ANW-AM substrate buffer solution (50 mM Tris of pH 7.5, 150 mM NaCl, 5 mM MgCl2, 5 mM ATP, 80 uM Ac-ANW-AMC and 1 mM DTT) and 25 μL of Suc-LLVY-AMC substrate buffer solution for 10 min of reaction at 37° C. in the dark. Fluorescence values were read at 345 nm/445 nm by using a fluorence microplate reader.
(§9) The data were exported and the inhibition rate in percentage was calculated according to the following formula: Inhibition rate=(maximum signal value-compound signal value)/(maximum signal value−blank signal value)×100%.
(§10) Where the maximum signal was obtained from cell lysates treated with DMSO only, and the blank signal was obtained from wells containing only lysates.

[2] = biological target: T2, β5i subunit of the 20S proteasome (Homo sapiens, UniProt P20618+P28062); experiment: Proteasome inhibitory activity, β5i subunit (Raji cells treated with compound, lysed, Ac-ANW-AMC substrate); conditions: proteasome from Raji cells incubated with compound 4 h
T2 construct: The proteasome tested in the present disclosure was derived from Raji cells; endogenous in cells; host or cells: Raji cells
Source text: as §1, §2, §3, §4, §5, §6, §7, §8, §9, §10

Row | Structure (SMILES) | IC50 (MM.1S cell strain) [nM] | IC50 [1] [nM] | IC50 [2] [nM]
1 | COc1cccc(CNC(=O)C(Cc2ccccc2)C(=O)N[C@@H](CC(C)C)B(O)O)c1 (stereo partly drawn) [Example 66, ((1R)-1-(2-benzyl-3-((3-methoxybenzyl)amino)-3-oxopropionamido)-3-methylbutyl)boronic acid] | ≤ 50 | ≤ 50 | ≤ 50
2 | Cc1ccc(C[C@H](NC(=O)C(C)C(=O)NCc2cccc(C(F)(F)F)c2)B(O)O)cc1 (stereo partly drawn) [Example 92, ((1R)-1-(2-methyl-3-oxo-3-((3-(trifluoromethyl)benzyl)amino)propionamido)-2-(p-tolyl)ethyl)boric acid] | ≤ 50 | ≤ 50 | ≤ 50
3 | COc1cccc(CNC(=O)C(CC2CC2)C(=O)N[C@@H](Cc2ccccc2)B(O)O)c1 (stereo partly drawn) [Example 3, ((1R)-1-(2-(cyclopropylmethyl)-3-((3-methoxybenzyl)amino)-3-oxopropionylamimo)-2-phenylethyl)boric acid] | ≤ 50 | ≤ 50 | ≤ 50
4 | COc1cccc(CNC(=O)C(CC2CCCCC2)C(=O)N[C@@H](Cc2ccc(C)cc2)B(O)O)c1 (stereo partly drawn) [Example 83, ((1R)-1-(2-(cyclohexylmethyl)-3-((3-methoxybenzyl)amino)-3-oxopropionamido)-2-(p-tolyl)ethyl)boric acid] | > 500 | 50 to 200 | ≤ 50
5 | CC(C(=O)NCc1cccc(C(F)(F)F)c1)C(=O)N[C@@H](Cc1coc2ccccc12)B(O)O (stereo partly drawn) [Example 77, ((1R)-2-(benzofuran-3-yl)-1-(2-methyl-3-oxo-3-((3-(trifluoromethyl)benzyl)amino)propionamido)ethyl)boric acid] | ≤ 50 | ≤ 50 | ≤ 50
6 | Cc1ccc(C[C@H](NC(=O)C(C(=O)NCc2ccc(Cl)cc2Cl)C(C)C)B(O)O)cc1 (stereo partly drawn) [Example 88, ((1R)-1-(2-((2,4-dichlorobenzyl)carbamoyl)-3-methylbutanamido)-2-(p-tolyl)ethyl)boric acid] | 50 to 200 | 50 to 200 | ≤ 50
7 | Cc1ccc(C[C@H](NC(=O)C(C)C(=O)Nc2ccccc2)B(O)O)cc1 (stereo partly drawn) [Example 40, ((1R)-1-(2-methyl-3-oxo-3-(phenylamino)propionamido)-2-(p-tolyl)ethyl)boric acid] | 50 to 200 | 50 to 200 | ≤ 50
8 | COc1cccc(CNC(=O)C(C)C(=O)N[C@@H](Cc2ccc(C)cc2)B(O)O)c1 (stereo partly drawn) [Example 43, ((1R)-1-(3-((3-methoxybenzyl)amino)-2-methyl-3-oxopropionamido)-2-(p-tolyl)ethyl)boric acid] | ≤ 50 | ≤ 50 | ≤ 50
9 | CC(C)C[C@H](NC(=O)/C=C/C(=O)NCc1cccc(-c2ccccc2)n1)B(O)O [Example 13, (R,E)-(3-methyl-1-(4-oxo-4-(((6-phenylpyridin-2-yl)methyl)amino)but-2-enamido)butyl)boric acid] | 50 to 200 | 50 to 200 | 50 to 200
10 | O=C(CC(=O)N[C@@H](Cc1coc2ccccc12)B(O)O)NCc1cccc(-c2ccccc2)c1 [Example 22, (R)-(1-(3-(([1,1′-biphenyl]-3-ylmethyl)amino)-3-oxopropionamido)-2-(benzofuran-3-yl)ethyl)boric acid] | ≤ 50 | ≤ 50 | ≤ 50
11 | CC(C)C[C@H](NC(=O)C(C)C(=O)NCc1ccccc1)B(O)O (stereo partly drawn) [Example 28, ((1R)-1-(3-(benzylamino)-2-methyl-3-oxopropionamido)-3-methylbutyl)boric acid] | 50 to 200 | 50 to 200 | 50 to 200
12 | COc1cccc(CNC(=O)C(C)C(=O)N[C@@H](Cc2ccc(-c3ccccc3)cc2)B(O)O)c1 (stereo partly drawn) [Example 36, ((1R)-2-([1,1′-biphenyl]-4-yl)-1-(3-((3-methoxybenzyl)amino)-2-methyl-3-oxopropionamido)ethyl)boric acid] | ≤ 50 | ≤ 50 | ≤ 50
13 | CC(C(=O)NCc1cccc(OC(F)(F)F)c1)C(=O)N[C@@H](Cc1coc2ccccc12)B(O)O (stereo partly drawn) [Example 73, ((1R)-2-(benzofuran-3-yl)-1-(2-methyl-3-oxo-3-((3-(trifluoromethoxy)benzyl)amino)propionamido)ethyl)boric acid] | ≤ 50 | ≤ 50 | ≤ 50
14 | COc1cccc(CCNC(=O)C(C)C(=O)N[C@@H](Cc2ccc(-c3ccccc3)cc2)B(O)O)c1 (stereo partly drawn) [Example 64, ((1R)-2-([1,1′-biphenyl]-4-yl)-1-(3-((3-methoxyphenylethyl)amino)-2-methyl-3-oxopropionamido)ethyl)boric acid] | ≤ 50 | ≤ 50 | ≤ 50
15 | CC(C(=O)NCc1ccccc1)C(=O)N[C@@H](Cc1ccccc1)B(O)O (stereo partly drawn) [Example 29, ((1R)-1-(3-(benzylamino)-2-methyl-3-oxopropionamido)-2-phenylethyl)boric acid] | 50 to 200 | ≤ 50 | ≤ 50
16 | COc1cccc(CNC(=O)CC(=O)N[C@@H](Cc2ccccc2)B(O)O)c1 [Example 49, (R)-(1-(3-((3-methoxybenzyl)amino)-3-oxopropionylamino)-2-phenylethyl)boric acid] | ≤ 50 | ≤ 50 | ≤ 50
17 | O=C(NCc1ccc2[nH]ccc2c1)C(Cc1ccccc1)C(=O)N[C@@H](Cc1coc2ccccc12)B(O)O (stereo partly drawn) [Example 91, ((1R)-1-(3-(((1H-indol-5-yl)methyl)amino)-2-benzyl-3-oxopropionamido)-2-(benzofuran-3-yl)ethyl)boric acid] | ≤ 50 | 50 to 200 | ≤ 50
